{
  "source": "patent US5340829A",
  "about": "“Immunoregulatory agents” (priority 1992, dated 1994)",
  "key": {"Normal mouse thymocytes": {"test_system": "Normal mouse thymocytes", "experiment": "3H-thymidine incorporation, PHA plus IL-1 stimulated thymocytes (Experiment 12)", "format": "cell-based", "details": "concentrations as high as 10^-6 M/L; PHA in the presence of preformed IL-1"}, "Human mononuclear cells": {"test_system": "Human mononuclear cells", "experiment": "PMA-stimulated superoxide production (Experiment 11)", "format": "cell-based", "details": "concentrations as high as 10^-5 M/L; PMA stimulated normal cells", "description": "Human mononuclear cells were studied for superoxide production in culture in the presence and absence of sorbinil. Superoxide production was stimulated in normal cells using the mitogen phorbol myristate acetate (PMA)."}, "[1]": {"test_system": "primary response to sheep red blood cells (SRBC)", "experiment": "Direct plaque forming cell (PFC) assay, primary response to sheep red blood cells (Experiment 6)", "format": "in vivo, C57BL/6J mice", "method": "A control group received only the buffer vehicle (carbonate buffer, 0.01M, pH 9.5). Six hours after the first dose, the mice received 0.1 ml of a 20% SRBC solution intraperitoneally. The mice were sacrificed four days later. The spleens were harvested, and the spleen cells were tested in a modified Cunningham plaque assay. Cunningham, A. V., Nature (London) 207:1106 1965."}, "[2]": {"test_system": "thymocytes from normal mice", "experiment": "Con A stimulated 3H-thymidine incorporation, thymocytes from normal mice in vitro (Experiment 18)", "format": "cell-based", "details": "concentrations as high as 10^-5 M/L"}, "[3]": {"test_system": "Human polymorphonuclear leukocytes (PMNs)", "experiment": "LTB4 release by polymorphonuclear leukocytes (Experiment 10)", "format": "cell-based", "details": "normal human PMNs", "description": "Human polymorphonuclear leukocytes (PMNs) were used to study LTB4 release, which is known to be involved in inflammation."}, "DTH reaction in ears": {"test_system": "DTH reaction in ears", "experiment": "Histologic examination of DNFB-challenged ear tissue (Experiment 5)", "format": "in vivo, mice", "method": "FIG. 16 depicts the ear of a primed mouse which has not been challenged with DNFB. The epidermis 22 is devoid of mononuclear infiltrate 28, as is the dermal compartment 24. A layer of cartilage 26 is located in the center of the ear. FIG. 17 represents the ear of a buffer-treated primed mouse which had been challenged 24 hours previously with DNFB. Note the pronounced edema in the dermal compartment of the skin 24 as well as the extensive mononuclear cell infiltrate (indicated by arrows 28) in both the dermis and epidermis. […] There were also fewer mononuclear cells 28 in the epidermis 22 as well."}, "Mouse peritoneal cells": {"test_system": "Mouse peritoneal cells", "experiment": "3H-thymidine incorporation in peritoneal cells, with or without LPS (Experiment 15)", "format": "cell-based", "details": "concentrations as high as 10^-6 M/L; control cells or cells stimulated using LPS"}, "[4]": {"test_system": "spleen cells from irradiated C57B6 mice with thymocytes from Balb C mice", "experiment": "Mixed lymphocyte response (Experiment 19)", "format": "cell-based", "details": "concentrations as high as 10^-5 M/L"}, "[5]": {"test_system": "spleen cells stimulated with Concanavalin A (Con A)", "experiment": "Spleen cell proliferative response to Con A after oral sorbinil (Experiment 8)", "format": "in vivo, mice", "details": "for activation at 11 mg/kg/day: Mus musculus, read-out: Enhancement of proliferative response", "method": "The proliferative response of T lymphocytes to the Con A mitogen requires the obligatory participation of adherent accessory cells, which are presumed to be macrophages.\nMice received sorbinil orally for one, two, or three days prior to sacrifice. The dosage was 11 mg/kg per day. Control mice received the buffer vehicle alone. Mice from these four groups were sacrificed and their spleens harvested. The spleens were teased into single-cell suspensions that were cultured with different concentrations of Con A for three or four days. One microcurie of tritiated thymidine was added to each culture 18 hours before the cultures were terminated. Incorporation of the tritiated thymidine into cellular DNA was measured by using a liquid scintillation counter. The results of this experiment are presented in FIGS. 20 and 21 and are summarized as follows: […]"}, "white cells": {"test_system": "white cells", "details": "in vivo"}, "[6]": {"test_system": "delayed type hypersensitivity (DTH) response to DNFB", "experiment": "Delayed-type hypersensitivity (DTH) ear swelling, DNFB-primed mice (Experiments 2-3)", "format": "in vivo, C57BL/6J mice", "method": "Delayed type hypersensitivity, which involves the participation of T lymphocytes and macrophages, can be studied in vivo by exposing (or priming) a mammal to a novel antigen and then reexposing (or challenging) the primed animal to the same antigen four to seven days later. The classic DTH response includes symptoms of inflammatory response, induration and erythema, which peak at 24 to 48 hours after challenging and then decline slowly.\nEight-week old female C57BL/6J mice (Jackson Labs) were divided into primed and unprimed groups. The five mice in the primed group were primed to 2,4-dinitrofluorobenzene (DNFB; Sigma Chemical Co., Grade 1, approx. 98%, Lot 129C-0065, No. d-6879) by painting their shaved ventral skins with 0.1 ml of 0.5% DNFB in ethanol:acetone (3:1). The five mice in the unprimed group were shaved and topically painted on their ventral skins with the ethanol:acetone (3:1) vehicle alone. The mice in both groups were challenged with DNFB four days later. A suitable patch of skin, the ear, was chosen for challenging. One ear was designated for challenging and the other to serve as a control. The thickness of each ear across the pinna was measured using micrometer calipers. The first measurements were taken four days after priming and are plotted as day 0 in FIG. 13. Next, each mouse was subjected to the following challenge regimen: one ear was challenged with one drop of 0.35% DNFB in olive oil, and the other (unchallenged control) ear was exposed to olive oil alone. The ear thicknesses (ET) of the challenged ear and the unchallenged ear were measured daily, and the swelling responses are plotted in FIG. 13 as: [formula]\nThree groups of eight-week old female C57BL/6J mice were primed to DNFB as previously described. […] Six hours later the first sets of ear measurements were taken, and one ear of each mouse was challenged.\nThe data in FIG. 15 is derived from three experiments using C57BL/6J mice. The measurements were taken at the time of maximal swelling, i.e., […] after challenge, and each point represents at least 9 mice."}, "Human macrophages": {"test_system": "Human macrophages", "experiment": "3H-thymidine incorporation, LPS-stimulated macrophages (Experiment 17)", "format": "cell-based", "details": "concentrations as high as 10^-5 M/L", "method": "Human macrophages were stimulated using LPS in vitro, and ^3 H-thymidine incorporation was measured."}, "Human monocytes": {"test_system": "Human monocytes", "experiment": "Monocyte adherence in vitro (Experiment 16)", "format": "cell-based", "details": "concentrations as high as 10^-6 M/L", "description": "Human monocytes were isolated and tested for adherence in vitro in the presence and absence of sorbinil."}, "[7]": {"details": "11 mg/kg orally daily, four days after SRBC"}},
  "note": "Entries after “also recorded” stand apart in the source; their conditions may differ. Like-named read-outs stand apart in the source and are kept apart here.",
  "data": [
    {"smiles": "O=C1NC(=O)[C@@]2(CCOc3ccc(F)cc32)N1", "note": "[Sorbinil, 4(S)-2,3-dihydro-6-fluorospiro-(4H-1-benzopyran-4,4'-imidazolidine)-2',5'-dione]", "values": [
      {"measurement": "Incorporation of 3H-thymidine", "setting": "Normal mouse thymocytes", "value": "no effect"},
      {"measurement": "Production of superoxide", "setting": "Human mononuclear cells", "value": "no effect"},
      {"measurement": "Direct plaques", "setting": "[1]; [7]", "value": "372±62", "unit": "plaques per 2×10^5 cells"},
      {"measurement": "Increase in spleen cellularity compared to buffer-treated control group", "setting": "[1]; [7]", "value": 46, "unit": "%"},
      {"measurement": "Increase in the number of direct plaques (IgM antibody secreting cells) compared to buffer control", "setting": "[1]; [7]", "value": 94, "unit": "%"},
      {"measurement": "PFC on a per spleen basis", "setting": "[1]; [7]", "value": "393,000±12,617 PFC/spleen"},
      {"measurement": "Spleen cellularity", "setting": "[1]; [7]", "value": "2.12±0.26×10^8 cells/spleen"},
      {"measurement": "Qualitative appearance of plaques", "setting": "[1]; spleen cells from sorbinil-treated mice vs buffer control", "value": "much smaller, more irregularly shaped, and less distinct"},
      {"measurement": "3H-thymidine incorporation stimulated by Con A", "setting": "[2]", "value": "no effect"},
      {"measurement": "Production of LTB4", "setting": "[3]", "value": "no effect"},
      {"measurement": "Edema of dermal compartment", "setting": "DTH reaction in ears; primed mouse challenged 24 hours previously with DNFB, vs buffer-treated", "value": "much less edematous"},
      {"measurement": "Mononuclear cell infiltration in challenged ears", "setting": "DTH reaction in ears; sorbinil-treated vs challenged control mice", "value": "infiltration was reduced"},
      {"measurement": "3H-thymidine incorporation", "setting": "Mouse peritoneal cells", "value": "no significant effect"},
      {"measurement": "Mixed lymphocyte response", "setting": "[4]", "value": "no effect"},
      {"measurement": "activation at 11 mg/kg/day", "setting": "[5]; 72 h", "value": 9, "unit": "%"},
      {"measurement": "activation at 11 mg/kg/day", "setting": "[5]; 96 h", "value": "3 to 30", "unit": "%"},
      {"measurement": "Reduction of proliferative response", "setting": "[5]; cultures harvested day four, sorbinil three days prior to harvest", "value": "25-58%"},
      {"measurement": "Reduction of proliferative response", "setting": "[5]; cultures harvested day four, sorbinil two days prior to sacrifice", "value": "5 to 18", "unit": "%"},
      {"measurement": "Reduction of proliferative response", "setting": "[5]; cultures harvested day three, sorbinil one day prior to sacrifice, 1 μmg of Con A/ml", "value": 25, "unit": "%"},
      {"measurement": "Reduction of proliferative response", "setting": "[5]; cultures harvested day three, sorbinil one day prior to sacrifice, Con A 2 μmg/ml", "value": 18, "unit": "%"},
      {"measurement": "Reduction of proliferative response", "setting": "[5]; cultures harvested day three, sorbinil three days prior to sacrifice, Con A 2 μmg/ml", "value": 30, "unit": "%"},
      {"measurement": "Reduction of proliferative response", "setting": "[5]; cultures harvested day three, sorbinil three days prior to sacrifice, Con A 5 μmg/ml", "value": 27, "unit": "%"},
      {"measurement": "Reduction of proliferative response", "setting": "[5]; cultures harvested day three, sorbinil two days prior to sacrifice, 1 μmg of Con A/ml", "value": 22, "unit": "%"},
      {"measurement": "Reduction of proliferative response", "setting": "[5]; cultures harvested day three, sorbinil two days prior to sacrifice, Con A 2 μmg/ml", "value": 11, "unit": "%"},
      {"measurement": "Proliferative response to the mitogen Con A (in words)", "setting": "[5]; sorbinil 11 mg/kg per day orally prior to sacrifice", "value": "reduced proliferative response; also recorded: inhibits the proliferative response of T-cells"},
      {"measurement": "Kinetics of the proliferative response of spleen cells to Con A", "setting": "[5]; sorbinil one, two, or three days prior to spleen cell harvesting", "value": "not affected"},
      {"measurement": "Dose response pattern to Con A", "setting": "[5]; sorbinil-treated vs buffer-treated mice", "value": "similar"},
      {"measurement": "White cell population (differential blood count)", "setting": "white cells", "value": "did not affect the population of white cells"},
      {"measurement": "ED100", "setting": "[6]; Mus musculus, extrapolation from least squares fit line, FIG. 15, three experiments, time of maximal swelling, i.e., 2 hours after challenge, read-out: Concentration at which maximum inhibition of DTH response (no swelling) would occur", "value": 13.5, "unit": "mg/kg"},
      {"measurement": "Ear swelling (in words)", "setting": "[6]; sorbinil 10 mg/kg orally", "value": "almost complete inhibition of ear swelling"},
      {"measurement": "Ear swelling / DTH response (in words)", "setting": "[6]; sorbinil orally 10, 1.0 or 0.1 mg/kg daily, DNFB-primed and challenged C57BL/6J mice", "value": "Swelling was inhibited; also recorded: dose dependent inhibition of ear swelling; also recorded: inhibits the inflammatory response; also recorded: dose dependent inhibition of the delayed-type hypersensitivity response"},
      {"measurement": "Incorporation of 3H-thymidine", "setting": "Human macrophages", "value": "no effect"},
      {"measurement": "Adherence of monocytes", "setting": "Human monocytes", "value": "no effect"}
    ]}
  ]
}
